In ChEMBL document CHEMBL1129179, “Antimicrobial evaluation of 3,1-benzoxazin-4-ones, 3,1-benzothiazin-4-ones, 4-alkoxyquinazolin-2-carbonitriles and N-arylimino-1,2,3-dithiazoles” (1996):
Values after ≈ are worked out from the molar mass of the structure shown. Active and inactive are the calls of the source. The rule behind the calls is not given here.

How the values were obtained:
[1] = Ratio of MFC99/MIC for antifungal activity against Issatchenkia orientalis DSM 6128 strain was determined; assay type: functional
[2] = Ratio of MFC99/MIC for antifungal activity against Cryptococcus neoformans DSM 70219 strain was determined; assay type: functional
Cryptococcus neoformans [3] = experiment: Minimum fungicidal concentration required for antifungal activity against Cryptococcus neoformans DSM 70219 strain; assay type: functional
Nakaseomyces glabratus [4] = experiment: Minimum inhibitory concentration required for antifungal activity against Candida glabrata DSM 6425 strain; assay type: functional
Cryptococcus neoformans [5] = experiment: Minimum inhibitory concentration required for antifungal activity against Cryptococcus neoformans DSM 70219 strain; assay type: functional
Pichia kudriavzevii [6] = experiment: Minimum fungicidal concentration required for antifungal activity against Issatchenkia orientalis DSM 6128 strain; assay type: functional
Candida albicans [7] = experiment: Minimum inhibitory concentration required for antifungal activity against Candida albicans ATCC 10231 strain; assay type: functional
Candida tropicalis [8] = experiment: Minimum fungicidal concentration required for antifungal activity against Candida tropicalis DSM 1346 strain; assay type: functional
Candida albicans [9] = experiment: Minimum fungicidal concentration required for antifungal activity against Candida albicans ATCC 10231 strain; assay type: functional
Nakaseomyces glabratus [10] = experiment: Minimum fungicidal concentration required for antifungal activity against Candida glabrata DSM 6425 strain; assay type: functional
[11] = Ratio of MFC99/MIC for antifungal activity against Candida glabrata DSM 6425 strain was determined; assay type: functional
[12] = Ratio of MFC99/MIC for antifungal activity against Candida albicans ATCC 10231 strain was determined; assay type: functional
Candida tropicalis [13] = experiment: Minimum inhibitory concentration required for antifungal activity against Candida tropicalis DSM 1346 strain; assay type: functional
Pichia kudriavzevii [14] = experiment: Minimum inhibitory concentration required for antifungal activity against Issatchenkia orientalis DSM 6128 strain; assay type: functional
[15] = Ratio of MFC99/MIC for antifungal activity against Candida tropicalis DSM 1346 strain was determined; assay type: functional
Escherichia coli = experiment: Antibacterial activity against gram-negative bacteria Escherichia coli ATCC 25922; No effect; assay type: functional, organism-based
Staphylococcus aureus = experiment: Antibacterial activity against gram-positive bacteria Staphylococcus aureus ATCC 9144; No effect; assay type: functional, organism-based
Enterococcus faecalis = experiment: Antibacterial activity against gram-positive bacteria Enterococcus faecalis ATCC 29212; No effect; assay type: functional, organism-based
Salmonella enterica = experiment: Antibacterial activity against gram-negative bacteria S. choleraesuis; No effect; assay type: functional, organism-based
Streptococcus pyogenes = experiment: Antibacterial activity against gram-positive bacteria Streptococcus pyogenes ATCC 19165; No effect; assay type: functional, organism-based
Salmonella typhimurium = experiment: Antibacterial activity against gram-negative bacteria Salmonella ser. Typhimurium; No effect; assay type: functional, organism-based; conditions: Salmonella enterica subsp. enterica serovar Typhimurium
Listeria monocytogenes = experiment: Antibacterial activity against gram-positive bacteria Listeria monocytogenes CIP 82110T; No effect; assay type: functional, organism-based
Proteus mirabilis = experiment: Antibacterial activity against gram-negative bacteria Proteus mirabilis CIP 1031811; No effect; assay type: functional, organism-based
Pseudomonas aeruginosa = experiment: Antibacterial activity against gram-negative bacteria Pseudomonas aeruginosa ATCC 27853; No effect; assay type: functional, organism-based
Klebsiella pneumoniae = experiment: Antibacterial activity against gram-negative bacteria K. pneumoniae; No effect; assay type: functional, organism-based

| SMILES | Ratio [1] | Ratio [2] | MFC99 (Cryptococcus neoformans [3]) | MIC (Nakaseomyces glabratus [4]) | MIC (Cryptococcus neoformans [5]) | MFC99 (Pichia kudriavzevii [6]) | MIC (Candida albicans [7]) | MFC99 (Candida tropicalis [8]) | MFC99 (Candida albicans [9]) | MFC99 (Nakaseomyces glabratus [10]) | Ratio [11] | Ratio [12] | MIC (Candida tropicalis [13]) | MIC (Pichia kudriavzevii [14]) | Ratio [15] | further results |
| --- | --- | --- | --- | --- | --- | --- | --- | --- | --- | --- | --- | --- | --- | --- | --- | --- |
| COC(=O)c1cc(OC)c(OC)cc1/N=c1\ssnc1Cl | 1.5 | 1.5 | 48 µg/mL (≈ 138 µM) | 16 µg/mL (≈ 46.1 µM) | 32 µg/mL (≈ 92.3 µM) | 48 µg/mL (≈ 138 µM) | 32 µg/mL (≈ 92.3 µM) | >48 µg/mL | 48 µg/mL (≈ 138 µM) | 48 µg/mL (≈ 138 µM) | 3 | 1.5 | 48 µg/mL (≈ 138 µM) | 32 µg/mL (≈ 92.3 µM) |  |  |
| C[C@@H]1[C@H](O)[C@@H](C)/C=C/C=C/C=C/C=C/C=C/C=C/C=C/[C@H](O[C@@H]2O[C@H](C)[C@@H](O)[C@H](N)[C@@H]2O)C[C@@H]2O[C@](O)(C[C@@H](O)C[C@@H](O)[C@H](O)CC[C@@H](O)C[C@@H](O)CC(=O)O[C@H]1C)C[C@H](O)[C@H]2C(=O)O [AMPHOTERICIN B] | 2 | 3.8 | 0.5 µg/mL (≈ 0.541 µM) | 1 µg/mL (≈ 1.08 µM) | 0.13 µg/mL (≈ 0.141 µM) | 1 µg/mL (≈ 1.08 µM) | 0.25 µg/mL (≈ 0.271 µM) | 2 µg/mL (≈ 2.16 µM) | 0.5 µg/mL (≈ 0.541 µM) | 2 µg/mL (≈ 2.16 µM) | 2 | 2 | 1 µg/mL (≈ 1.08 µM) | 0.5 µg/mL (≈ 0.541 µM) | 2 |  |
| COC(=O)c1ccccc1/N=c1\ssnc1Cl | 2 | 1 | 32 µg/mL (≈ 112 µM) | 16 µg/mL (≈ 55.8 µM) | 32 µg/mL (≈ 112 µM) | 32 µg/mL (≈ 112 µM) | 16 µg/mL (≈ 55.8 µM) | 16 µg/mL (≈ 55.8 µM) | 16 µg/mL (≈ 55.8 µM) | 32 µg/mL (≈ 112 µM) | 2 | 1 | 16 µg/mL (≈ 55.8 µM) | 16 µg/mL (≈ 55.8 µM) | 1 |  |
| N#Cc1ccccc1/N=c1\ssnc1Cl | 1 | 1 | 16 µg/mL (≈ 63.1 µM) | 16 µg/mL (≈ 63.1 µM) | 16 µg/mL (≈ 63.1 µM) | 16 µg/mL (≈ 63.1 µM) | 16 µg/mL (≈ 63.1 µM) | 16 µg/mL (≈ 63.1 µM) | 16 µg/mL (≈ 63.1 µM) | 16 µg/mL (≈ 63.1 µM) | 1 | 1 | 16 µg/mL (≈ 63.1 µM) | 16 µg/mL (≈ 63.1 µM) | 1 |  |
| Clc1nss/c1=N\c1ccc2c(c1)OCCO2 |  | 1 | 16 µg/mL (≈ 55.8 µM) | 16 µg/mL (≈ 55.8 µM) | 16 µg/mL (≈ 55.8 µM) | >48 µg/mL | 32 µg/mL (≈ 112 µM) | >48 µg/mL | 48 µg/mL (≈ 167 µM) | 48 µg/mL (≈ 167 µM) | 3 | 1.5 | 48 µg/mL (≈ 167 µM) | 48 µg/mL (≈ 167 µM) |  |  |
| Nc1nc(=O)[nH]cc1F [FLUCYTOSINE] | 4 | >64 | >128 µg/mL | 0.05 µg/mL (≈ 0.387 µM) | 2 µg/mL (≈ 15.5 µM) | 64 µg/mL (≈ 496 µM) | 0.13 µg/mL (≈ 1.01 µM) | 0.25 µg/mL (≈ 1.94 µM) | 4 µg/mL (≈ 31 µM) | 0.25 µg/mL (≈ 1.94 µM) | 5 |  | 0.1 µg/mL (≈ 0.775 µM) | 16 µg/mL (≈ 124 µM) | 5 |  |
| COc1ccc(/N=c2\ssnc2Cl)cc1 | 1 | 1 | 8 µg/mL (≈ 30.9 µM) | 16 µg/mL (≈ 61.8 µM) | 8 µg/mL (≈ 30.9 µM) | 16 µg/mL (≈ 61.8 µM) | 16 µg/mL (≈ 61.8 µM) | 16 µg/mL (≈ 61.8 µM) | 16 µg/mL (≈ 61.8 µM) | 16 µg/mL (≈ 61.8 µM) | 1 | 1 | 16 µg/mL (≈ 61.8 µM) | 16 µg/mL (≈ 61.8 µM) | 1 |  |
| COc1cc(/N=c2\ssnc2Cl)cc(OC)c1OC | 2 | 2 | 32 µg/mL (≈ 100 µM) | 16 µg/mL (≈ 50.2 µM) | 16 µg/mL (≈ 50.2 µM) | 32 µg/mL (≈ 100 µM) | 16 µg/mL (≈ 50.2 µM) | 32 µg/mL (≈ 100 µM) | 16 µg/mL (≈ 50.2 µM) | 16 µg/mL (≈ 50.2 µM) | 1 | 1 | 16 µg/mL (≈ 50.2 µM) | 16 µg/mL (≈ 50.2 µM) | 2 |  |
| Clc1nss/c1=N\c1ccccc1 | 1 | 1 | 8 µg/mL (≈ 35 µM) | 16 µg/mL (≈ 70 µM) | 8 µg/mL (≈ 35 µM) | 16 µg/mL (≈ 70 µM) | 16 µg/mL (≈ 70 µM) | 16 µg/mL (≈ 70 µM) | 16 µg/mL (≈ 70 µM) | 16 µg/mL (≈ 70 µM) | 1 | 1 | 16 µg/mL (≈ 70 µM) | 16 µg/mL (≈ 70 µM) | 1 |  |
| OC(Cn1cncn1)(Cn1cncn1)c1ccc(F)cc1F [FLUCONAZOLE] | 4 | >32 | >128 µg/mL | 4 µg/mL (≈ 13.1 µM) | 4 µg/mL (≈ 13.1 µM) | 64 µg/mL (≈ 209 µM) | 2 µg/mL (≈ 6.53 µM) | >128 µg/mL | >128 µg/mL | >128 µg/mL | >32 | >64 | 4 µg/mL (≈ 13.1 µM) | 16 µg/mL (≈ 52.2 µM) | >32 |  |
| COc1ccccc1/N=c1\ssnc1Cl | 1 | 2 | 16 µg/mL (≈ 61.8 µM) | 16 µg/mL (≈ 61.8 µM) | 8 µg/mL (≈ 30.9 µM) | 16 µg/mL (≈ 61.8 µM) | 16 µg/mL (≈ 61.8 µM) | 16 µg/mL (≈ 61.8 µM) | 16 µg/mL (≈ 61.8 µM) | 16 µg/mL (≈ 61.8 µM) | 1 | 1 | 16 µg/mL (≈ 61.8 µM) | 16 µg/mL (≈ 61.8 µM) | 1 |  |
| COc1cc(C#N)c(/N=c2\ssnc2Cl)cc1OC | 1.5 | 1 | 32 µg/mL (≈ 102 µM) | 32 µg/mL (≈ 102 µM) | 32 µg/mL (≈ 102 µM) | 48 µg/mL (≈ 153 µM) | 32 µg/mL (≈ 102 µM) | >48 µg/mL | 32 µg/mL (≈ 102 µM) | 48 µg/mL (≈ 153 µM) | 1.5 | 1 | 48 µg/mL (≈ 153 µM) | 32 µg/mL (≈ 102 µM) |  |  |
| CCOc1nc(C#N)nc2cc(OC)c(OC)cc12 |  |  |  |  |  |  |  |  |  |  |  |  |  |  |  | Activity (Escherichia coli): inactive; Activity (Staphylococcus aureus): inactive; Activity (Enterococcus faecalis): inactive; Activity (Salmonella enterica): inactive; Activity (Streptococcus pyogenes): inactive; Activity (Salmonella typhimurium): inactive; Activity (Listeria monocytogenes): inactive; Activity (Proteus mirabilis): inactive; Activity (Pseudomonas aeruginosa): inactive; Activity (Klebsiella pneumoniae): inactive |
| N#Cc1nc2ccccc2c(=O)o1 |  |  |  |  |  |  |  |  |  |  |  |  |  |  |  | Activity (Escherichia coli): inactive; Activity (Staphylococcus aureus): inactive; Activity (Enterococcus faecalis): inactive; Activity (Salmonella enterica): inactive; Activity (Streptococcus pyogenes): inactive; Activity (Salmonella typhimurium): inactive; Activity (Listeria monocytogenes): inactive; Activity (Proteus mirabilis): inactive; Activity (Pseudomonas aeruginosa): inactive; Activity (Klebsiella pneumoniae): inactive |
| COc1ccc(/N=c2\ssnc2Cl)cc1OC | 2 | 2 | 32 µg/mL (≈ 111 µM) | 16 µg/mL (≈ 55.4 µM) | 16 µg/mL (≈ 55.4 µM) | 32 µg/mL (≈ 111 µM) | 16 µg/mL (≈ 55.4 µM) | 32 µg/mL (≈ 111 µM) | 16 µg/mL (≈ 55.4 µM) | 16 µg/mL (≈ 55.4 µM) | 1 | 1 | 16 µg/mL (≈ 55.4 µM) | 16 µg/mL (≈ 55.4 µM) | 2 |  |
